Laboratory results taken from patent publication US20220273662A1, “USE OF SILDENAFIL AND ROCK INHIBITORS FOR TREATING STROKE OR SEQUELAE FOLLOWING STROKE” (SOONCHUNHYANG UNIVERSITY INDUSTRY ACADEMY COOPERATION …, priority 2019, published 2022).
Structures can show the parent of a compound that is named as a salt.

Legend:
Type in all cases: in vivo, Sprague-Dawley male rats
[1] = tested on: MCAo30 acute stroke (cerebral infarction) model; test: Measurement of infarction volume (TTC staining) after middle cerebral artery occlusion; conditions: relative to MCAo30 (100% stroke range basis); i.p. sildenafil citrate 20 mg/kg and/or GSK429286A 10 mg/kg, 30 min before or after reperfusion; combination value for both before/after groups
Description: 8-week-old Sprague-Dawley male rats weighing 260 to 280 g were used as experimental animals, and the experimental animals were obtained from the Experimental Animal Center, at Soonchunhyang University (Cheonan). All experimental animals were arbitrarily provided with commercially available feed and water under specific temperature, humidity and lighting conditions (light-dark cycle 12:12, 22±2° C., 55±5%). All animal protocols were approved by the Administrative Panel on Laboratory Animal Care of Soonchunhyang University (permit No. SCH16-0024). In performing experiments related to the present invention, all possible efforts were made to prevent the suffering of the experimental animals and to minimize the number of experimental animals used during the experiments. […] Finally, images were produced from TTC-stained coronal section brain slices using a model DP72 digital camera and DP2-BSW microscope digital camera software (Olympus, Japan), the area of ischemic brain damage in each brain slice was measured using image analysis software (ImageJ, NIH, USA). […] The volume of total cerebral infarction was the sum of the core and the ischemic penumbra, the damaged volume was calculated as an average percentage of the hemispherical volume, and the volume of edema was adjusted with reference to the results of previous studies. […]

[2] = tested on: MCAo30 acute stroke (cerebral infarction) model; test: Open field test (locomotor activity); conditions: normal control = 100% (MCAo30 57.4%), combination given after reperfusion
Description: 8-week-old Sprague-Dawley male rats weighing 260 to 280 g were used as experimental animals, and the experimental animals were obtained from the Experimental Animal Center, at Soonchunhyang University (Cheonan). All experimental animals were arbitrarily provided with commercially available feed and water under specific temperature, humidity and lighting conditions (light-dark cycle 12:12, 22±2° C., 55±5%). […] In performing experiments related to the present invention, all possible efforts were made to prevent the suffering of the experimental animals and to minimize the number of experimental animals used during the experiments. […] More specifically, the following experimental drugs were each intraperitoneally administered 30 minutes before reperfusion after middle cerebral artery occlusion and 30 minutes after reperfusion after middle cerebral artery occlusion. i) sildenafil citrate (20 mg/kg/saline, Hanmi Parm. […] An open field black box (60×60×40 cm; length, width, height) was placed in an isolated room without clues, and the experimental animals were placed in the central area of the open field box under diffused light. The distance traveled by the experimental animals was recorded and analyzed for 30 minutes using Ethovision® software, which is a PC-based video motion analysis system. […]

[3] = tested on: MCAo30 acute stroke (cerebral infarction) model; test: Light-dark box test (anxiety level); conditions: normal control = 100% (MCAo30 62.08%), combination given after reperfusion
Description: 8-week-old Sprague-Dawley male rats weighing 260 to 280 g were used as experimental animals, and the experimental animals were obtained from the Experimental Animal Center, at Soonchunhyang University (Cheonan). All experimental animals were arbitrarily provided with commercially available feed and water under specific temperature, humidity and lighting conditions (light-dark cycle 12:12, 22±2° C., 55±5%). All animal protocols were approved by the Administrative Panel on Laboratory Animal Care of Soonchunhyang University (permit No. SCH16-0024). […] More specifically, the following experimental drugs were each intraperitoneally administered 30 minutes before reperfusion after middle cerebral artery occlusion and 30 minutes after reperfusion after middle cerebral artery occlusion. i) sildenafil citrate (20 mg/kg/saline, Hanmi Parm. Co., Republic of Korea) ii) GSK429286A (10 mg/kg/DMSO, Sigma, USA) iii) sildenafil citrate (20 mg/kg/saline) and GSK429286A (10 mg/kg/DMSO) A light-dark box (45×27×27 cm; length, width, height) was divided into two compartments, and more specifically, three-fifths was a bright compartment and two-fifths was a dark compartment. Each compartment was connected by a 9×9 cm entrance located on the floor. […] Here, sildenafil and the ROCK inhibitor were co-administered after reperfusion after middle cerebral artery occlusion.

[4] = tested on: MCAo30 acute stroke (cerebral infarction) model; test: Barnes maze test (cognitive function, escape time); conditions: compared to normal control, MCAo30 about 3-fold longer than normal control
Description: All experimental animals were arbitrarily provided with commercially available feed and water under specific temperature, humidity and lighting conditions (light-dark cycle 12:12, 22±2° C., 55±5%). […] Co., Republic of Korea) ii) GSK429286A (10 mg/kg/DMSO, Sigma, USA) iii) sildenafil citrate (20 mg/kg/saline) and GSK429286A (10 mg/kg/DMSO) A Barnes maze consisted of a circular platform (122 cm in diameter) with 20 holes around the same distance and elevated 105 cm from the floor. Four different visual cues were placed on each quadrant wall surrounding the platform at a height that makes it easy to observe experimental animals, and one hole (escape hole) in the quadrant area includes an escape chamber under the platform. Further, bedding was added to the escape chamber for the safety of experimental animals. […] More specifically, a metronome was used to generate 80 Hz noise and to maintain the illuminance measured at the center of the platform at 300 lux. […] 10 seconds later, when the cylinder was removed, the experimental animal explored the platform from the center and this activity was recorded by a video camera. […] The distance and duration traveled from the quadrant area where the escape chamber connected to the escape hole is located was analyzed by Ethovision® software, and the waiting time to reach the escape chamber connected to the escape hole was manually analyzed.

[5] = tested on: MCAo30 acute stroke (cerebral infarction) model; test: Measurement of fEPSP slope (synaptic plasticity, hippocampal CA1 LTP); conditions: for fEPSP slope: MCAo30 84.11%
Description: 8-week-old Sprague-Dawley male rats weighing 260 to 280 g were used as experimental animals, and the experimental animals were obtained from the Experimental Animal Center, at Soonchunhyang University (Cheonan). All experimental animals were arbitrarily provided with commercially available feed and water under specific temperature, humidity and lighting conditions (light-dark cycle 12:12, 22±2° C., 55±5%). […] More specifically, the following experimental drugs were each intraperitoneally administered 30 minutes before reperfusion after middle cerebral artery occlusion and 30 minutes after reperfusion after middle cerebral artery occlusion. i) sildenafil citrate (20 mg/kg/saline, Hanmi Parm. Co., Republic of Korea) ii) GSK429286A (10 mg/kg/DMSO, Sigma, USA) iii) sildenafil citrate (20 mg/kg/saline) and GSK429286A (10 mg/kg/DMSO) Field potentials (fEPSP) were recorded at a slightly modified part from CA1 of the hippocampus. After a behavioral test, the animals were anesthetized intraperitoneally using urethane (1.5 g/kg) and placed in a stereotaxic frame. The rectal temperature during surgery was maintained at 37±0.3° C. using a temperature controller (Harvard Instruments, USA). Next, the scalp was opened and separated, and a hole was made through the skull to introduce electrodes. The coordinates (in mm) based on bregma (a junction of the coronal suture and the sagittal suture in the skull) are as follows. […] The depth of the electrodes was finally determined by observing whether the induced response was optimized. The fEPSP was adjusted to about 60% of the maximum response size for testing, and stimuli were generated by a BNC-2110 apparatus (National Instruments, USA) and a Digital Stimulus Isolation unit (Getting Instruments, CA, USA). The response of pyramidal neurons to the Schaffer collateral stimulus was recorded using a [MUT].C. pre-amplifier (3-1000 Hz bandpass, Astro-Med Inc.) and analyzed using […] . […] A stable baseline was recorded for 30 minutes to 60 minutes. […] The response of fEPSP for the age-matched control was also measured using the same method.

CC1=C(C(=O)Nc2cc3cn[nH]c3cc2F)C(c2ccc(C(F)(F)F)cc2)CC(=O)N1 (stereo not shown) [ROCK inhibitor, N-(6-fluoro-1H-indazol-5-yl)-6-methyl-2-oxo-4-[4-(trifluoromethyl)phenyl]-3,4-dihydro-1H-pyridine-5-carboxamide]
damage to brain tissue after the onset of stroke (infarction volume) [1]: 21.28%
locomotor activity [2]: 71%
time in which rats stayed in a bright place compared to the normal control [3]: 84.26%
escape time (in words) [4]: level similar to that of the normal control

CCCc1nn(C)c2c(=O)[nH]c(-c3cc(S(=O)(=O)N4CCN(C)CC4)ccc3OCC)nc12 [sildenafil, sildenafil citrate]
damage to brain tissue after the onset of stroke (infarction volume) [1]: 26.71%
locomotor activity [2]: 70.8%
time in which rats stayed in a bright place compared to the normal control [3]: 63.63%
fEPSP slope ([5]; administered after reperfusion after middle cerebral artery occlusion): 158.31%
fEPSP slope ([5]; administered before reperfusion after middle cerebral artery occlusion): 102.35%
fold improved fEPSP slope, group after reperfusion compared to group before reperfusion ([5]; sildenafil alone, after vs before reperfusion): about 4.06 fold
